The text below walks through data of patent US7825151B2, “Hexahydro-cyclooctyl pyrazole cannabinoid modulators” (priority 2005, dated 2010).

The target of assay [1] is T1, human CB1 receptor (Homo sapiens, UniProt P21554).
T1 construct: expressed in transfected cells; host or cells: SK-N-MC cells, stably transfected with pcDNA3 CB-1 (human)
The assay is described as follows: Functional cell-based CRE β-gal assay, CB1 (adenylate cyclase activity). The text has this: (§1) The CB1 and CB2 receptors are G-protein coupled receptors (GPCR), which influence cell function via the Gi-protein. These receptors modulate the activity of intracellular adenylate cyclase, which in turn produces the intracellular signal messenger cyclic-AMP (cAMP).
(§2) At baseline, or during non-ligand bound conditions, these receptors are constitutively active and tonically suppress adenylate cyclase activity. The binding of an agonist causes further receptor activation and produces additional suppression of adenylate cyclase activity. The binding of an inverse agonist inhibits the constitutive activity of the receptors and results in an increase in adenylate cyclase activity.
(§3) By monitoring intracellular adenylate cyclase activity, the ability of compounds to act as agonists or inverse agonists can be determined.
(§4) Test compounds were evaluated in SK-N-MC cells which, using standard transfection procedures, were stably transfected with human cDNA for pcDNA3-CRE β-gal and pcDNA3 CB1 receptor (human) or pcDNA3 CB2 receptor (human). By expressing CRE β-gal, the cells produced β-galactosidase in response to CRE promoter activation by cAMP. Cells expressing CRE β-gal and either the human CB1 or CB2 receptor will produce less β-galactosidase when treated with a CB1/CB2 agonist and will produce more β-galactosidase when treated with a CB1/CB2 inverse agonist.
(§5) The cells were grown in 96-well plates under standard cell culture conditions at 37° C. in a 5% CO2 atmosphere. After 3 days, the media was removed and a test compound in media (wherein the media was supplemented with 2 mM L-glutamine, […] sodium pyruvate, 0.1% low fatty acid FBS (fetal bovine serum) and antibiotics) was added to the cell. The plates were incubated for 30 minutes at 37° C. and the plate cells were then treated with forskolin over a 4-6 hour period, then washed and lysed. The β-galactosidase activity was quantitated using commercially available kit reagents (Promega Corp. Madison, Wis.) and a Vmax Plate Reader (Molecular Devices, Inc).
(§6) The change in β-galactosidase activity was determined by setting a vehicle treated cell's activity value at 100% and expressing the β-galactosidase activity measured in a corresponding compound treated cell as a percent of the vehicle treated cell activity.
The EC50 value for functional activity for compounds tested was calculated by linear regression and was obtained from studies in which varying compound concentrations were used. Data provided for certain compounds is represented by percent change (%) in functional activity at a single test concentration: ^(1)10 μM and ^(2)1 μM.

For assay [2], the target named is T2, CB2 receptor (Homo sapiens, UniProt P34972).
T2 construct: expressed in transfected cells; host or cells: SK-N-MC cells, stably transfected with pcDNA3 CB-2 (human)
The assay is described as follows: Functional cell-based CRE β-gal assay, CB2 (adenylate cyclase activity).
From the text: as §1, §2, §3, §4, §5
For cells expressing CRE β-gal and the CB2 receptor, CB2 agonists reduced β-galactosidase activity in a dose-dependent manner and CB2 inverse agonists increase β-galactosidase activity in a dose-dependent manner.
as §6
The EC50 value for functional activity for compounds tested was calculated by linear regression and was obtained from studies in which varying compound concentrations were used.
The value of 29% for Compound 5 represents change in functional activity and was obtained from a study in which one compound concentration was used.

In assay [3] the target is T1, human CB1 receptor. Briefly: Binding assay for CB1 ([3H]-CP-55,940 displacement, SK-N-MC membranes). The note with it: for inhibition at 0.2 µM: test concentration 0.2 μM (footnote 3), read-out: CB1 receptor binding percent inhibition; for pIC50: Cannabinoid CB1 Receptor Binding IC50, radioligand CP-55,940 0.2 nM, SK-N-MC membranes. As to the method: (§7) The human CB1 and CB2 receptors were stably expressed in SK-N-MC cells transfected with pcDNA3 CB-1 (human) or pcDNA3 CB-2 (human). The cells were grown in T-180 cell culture flasks under standard cell culture conditions at 37° C. in a 5% CO2 atmosphere. The cells were harvested by trysinization and homogenized in a homogenization buffer (10 mM Tris, 0.2 mM MgCl2, 5 mM KCl, with protease inhibitors aprotinin, leupeptin, pepstatin A and bacitracin) and centrifuged (2000 g). The supernatant was then centrifuged in 2M sucrose (31,300 g) to produce a semi-purified membrane pellet. The pellet was resuspended in homogenization and stored at −80° C.
(§8) On the day of the assay, the pellet was thawed on ice and diluted in assay buffer (50 mM Tris-HCl, 5 mM MgCl2, 2.5 mM EDTA, 0.5 mg/mL fatty acid free bovine serum albumin, pH 7.5). The diluted membrane pellet was added with buffer, either a test compound or vehicle standard and the radioligand [H]^3+-CP-55,940 (0.2 nM) to the wells of a 96-well polypropylene plate. Non-specific binding was measured in wells containing WIN 55,212 (10 uM). The plate was covered and incubated for 90 minutes at 30° C. The contents were then aspirated onto a Packard Unifilter GF/C filter bottom plate prewet with 0.5% polyethyleneimine. The wells of the polypropylene plate were rinsed and aspirated seven times with a 0.9% saline-0.5% Tween 20 solution. The Unifilter plate was dried, scintillation cocktail was added to each well and the counts representing binding were quantitated in a TopCount scintillation counter.
(§9) For compounds tested, an IC50 binding value was obtained from percent inhibition studies in which various test concentrations were used. The binding value was calculated by linear regression.
(§10) For compounds without an IC50 binding value, the percent inhibition (%) was obtained at a test concentration of ^(1)10 μM, ^(2)1 μM, ^(3)0.2 μM, ^(4)0.003 μM, ^(5) represents an average value.

Assay [4] deals with T2, CB2 receptor. Briefly: Binding assay for CB2 ([3H]-CP-55,940 displacement, SK-N-MC membranes). The note with it: read-out: CB2 receptor binding percent inhibition. As to the method:
as §7, §8, §9, §10

The mark [5] stands for this setting: test concentration 0.2 μM (footnote 3).

pEC50, pIC50: −log10 of the molar value. Where two headings read alike, the source gives them in different places.

T1 sequence (P21554 whole entry): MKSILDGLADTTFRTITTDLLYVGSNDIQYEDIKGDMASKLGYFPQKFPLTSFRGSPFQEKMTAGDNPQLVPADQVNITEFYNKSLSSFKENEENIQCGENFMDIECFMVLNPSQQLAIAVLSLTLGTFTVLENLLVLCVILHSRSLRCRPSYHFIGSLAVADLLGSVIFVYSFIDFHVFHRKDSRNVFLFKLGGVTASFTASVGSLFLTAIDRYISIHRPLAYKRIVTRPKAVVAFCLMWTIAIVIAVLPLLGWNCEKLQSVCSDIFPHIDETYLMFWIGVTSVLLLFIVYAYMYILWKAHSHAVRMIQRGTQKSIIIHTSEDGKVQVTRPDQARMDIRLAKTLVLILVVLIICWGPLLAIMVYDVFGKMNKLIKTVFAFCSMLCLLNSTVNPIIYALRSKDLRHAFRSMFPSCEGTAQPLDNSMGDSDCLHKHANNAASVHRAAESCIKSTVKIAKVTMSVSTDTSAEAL
T2 sequence (P34972 whole entry): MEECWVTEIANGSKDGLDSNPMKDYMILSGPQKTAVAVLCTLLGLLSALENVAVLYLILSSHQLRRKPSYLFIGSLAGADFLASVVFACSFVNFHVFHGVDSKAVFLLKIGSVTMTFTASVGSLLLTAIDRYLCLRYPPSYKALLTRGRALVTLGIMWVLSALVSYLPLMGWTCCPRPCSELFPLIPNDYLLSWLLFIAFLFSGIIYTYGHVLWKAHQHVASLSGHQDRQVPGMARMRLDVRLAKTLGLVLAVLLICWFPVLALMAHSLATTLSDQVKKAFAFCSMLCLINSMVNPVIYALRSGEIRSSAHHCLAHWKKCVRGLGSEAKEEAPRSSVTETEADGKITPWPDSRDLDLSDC

Turning to `O=C(N[C@@H](CO)c1ccccc1)c1n[nH]c2c1CCCCCC2Cc1cccc(Cl)c1` (stereo in doubt) [Cpd 23, (9R*)-(3-chloro-benzyl)-4,5,6,7,8,9-hexahydro-1H-cyclooctapyrazole-3-carboxylic acid [(1R)-2-hydroxy-1-phenyl-ethyl]-amide], the pEC50 at human CB1 receptor [1] (SK-N-MC cells, CRE β-gal, forskolin, agonist, read-out: CB1 Receptor Functional Agonist Activity EC50) is 7.06; at CB2 receptor [2] (SK-N-MC cells, CRE β-gal, forskolin, agonist, read-out: CB2 Receptor Functional Agonist Activity EC50), 7.96.
Turning to `C[C@H](NS(=O)(=O)/C=C/c1n[nH]c2c1CCCCCC2Cc1cccc(Cl)c1)c1ccccc1` (stereo partly drawn) [Cpd 21, (2E)-[9-(3-chloro-benzyl)-4,5,6,7,8,9-hexahydro-1H-cyclooctapyrazol-3-yl]-ethenesulfonic acid [(1S)-1-phenyl-ethyl]-amide], the results for the pEC50 at human CB1 receptor [1] and on CB2 receptor [2] were under 5.30 and 6.46, respectively.
The like results for `O=C(N[C@H](CO)c1ccccc1)c1n[nH]c2c1CCCCC[C@@H]2Cc1cccc(Cl)c1` (relative stereo) [Cpd 24, (9R*)-(3-chloro-benzyl)-4,5,6,7,8,9-hexahydro-1H-cyclooctapyrazole-3-carboxylic acid [(1S)-2-hydroxy-1-phenyl-ethyl]-amide] were, in that order, under 5.30 and 6.91.
Consider `O=C(c1nn(-c2ccc(Cl)cc2Cl)c2c1CCCCC/C2=C\c1ccc(F)cc1)N1CCCCC1` [Cpd 14, (9E)-[1-(2,4-dichloro-phenyl)-9-(4-fluoro-benzylidene)-4,5,6,7,8,9-hexahydro-1H-cyclooctapyrazol-3-yl]-piperidin-1-yl-methanone], for which the inhibition at 0.2 µM on human CB1 receptor [3] was found to be 50%; on CB2 receptor [4] (setting [5]) it was 28%.
`O=C(NN1CC2CCCC2C1)c1nn(-c2ccc(Cl)cc2Cl)c2c1CCCCC/C2=C\c1ccc(F)cc1` (stereo not shown) [Cpd 18, (9E)-1-(2,4-dichloro-phenyl)-9-(4-fluoro-benzylidene)-4,5,6,7,8,9-hexahydro-1H-cyclooctapyrazole-3-carboxylic acid (hexahydro-cyclopenta[c]pyrrol-2-yl)-amide]: the negative logarithm of the IC50 (pIC50) on human CB1 receptor [3] was 7.30. At human CB1 receptor [1], this compound showed a negative logarithm of the EC50 (pEC50) of 7.70.
`O=C(N[C@H](CO)c1ccccc1)c1n[nH]c2c1CCCCC[C@H]2Cc1cccc(Cl)c1` (relative stereo) [Cpd 25, (9S*)-(3-chloro-benzyl)-4,5,6,7,8,9-hexahydro-1H-cyclooctapyrazole-3-carboxylic acid [(1S)-2-hydroxy-1-phenyl-ethyl]-amide]: the negative logarithm of the EC50 (pEC50) was under 5.30 on human CB1 receptor [1] and 7.85 on CB2 receptor [2].
As to `C[C@@H](NC(=O)c1nn(-c2ccc(Cl)cc2Cl)c2c1CCCCC/C2=C\c1ccc(F)cc1)c1ccccn1` [Cpd 13, (9E)-1-(2,4-dichloro-phenyl)-9-(4-fluoro-benzylidene)-4,5,6,7,8,9-hexahydro-1H-cyclooctapyrazole-3-carboxylic acid [(1R)-1-pyridin-2-yl-ethyl]-amide], on human CB1 receptor [3], the negative-log IC50 (pIC50) is 8.10 and the inhibition at 0.2 µM stood at 90%. Further, the pEC50 at human CB1 receptor [1] was 8.70. Also, the inhibition at 0.2 µM on CB2 receptor [4] came to 11%.
For the compound `COc1ccc([C@H](C)NS(=O)(=O)/C=C/c2n[nH]c3c2CCCCCC3Cc2cccc(Cl)c2)cc1` (stereo partly drawn) [Cpd 20, (2E)-[9-(3-chloro-benzyl)-4,5,6,7,8,9-hexahydro-1H-cyclooctapyrazol-3-yl]-ethenesulfonic acid [(1S)-1-(4-methoxy-phenyl)-ethyl]-amide], the negative-log EC50 (pEC50) was under 5.30 on human CB1 receptor [1] and at most 5.30 on CB2 receptor [2].
In the case of `O=C(NNc1ccc(Cl)cc1Cl)c1nn(-c2ccc(Cl)cc2Cl)c2c1CCCCC/C2=C\c1ccc(F)cc1` [Cpd 11, (9E)-1-(2,4-dichloro-phenyl)-9-(4-fluoro-benzylidene)-4,5,6,7,8,9-hexahydro-1H-cyclooctapyrazole-3-carboxylic acid N'-(2,4-dichloro-phenyl)-hydrazide], the inhibition at 0.2 µM came out at 56% at human CB1 receptor [3] and 30% at CB2 receptor [4] (setting [5]).
With `C[C@@H](NC(=O)c1nn(-c2ccc(Cl)cc2Cl)c2c1CCCCC/C2=C\c1ccc(F)cc1)C1CCCCC1` [Cpd 17, (9E)-1-(2,4-dichloro-phenyl)-9-(4-fluoro-benzylidene)-4,5,6,7,8,9-hexahydro-1H-cyclooctapyrazole-3-carboxylic acid [(1R)-1-cyclohexyl-ethyl]-amide], on human CB1 receptor [3], the pIC50 was 8.00 and the inhibition at 0.2 µM worked out at 86%. Also, the pEC50 at human CB1 receptor [1] is 7.40. In addition, the inhibition at 0.2 µM on CB2 receptor [4] was 25%.
With `C[C@@H](NC(=O)c1nn(-c2ccc(Cl)cc2Cl)c2c1CCCCC/C2=C\c1ccc(F)cc1)c1ccccc1` [Cpd 12, (9E)-1-(2,4-dichloro-phenyl)-9-(4-fluoro-benzylidene)-4,5,6,7,8,9-hexahydro-1H-cyclooctapyrazole-3-carboxylic acid [(1R)-1-phenyl-ethyl]-amide], at human CB1 receptor [3], the pIC50 was 8.10 and the inhibition at 0.2 µM worked out at 89%. The same compound showed a negative logarithm of the EC50 (pEC50) at human CB1 receptor [1] of 8.00. For the same compound, the inhibition at 0.2 µM at CB2 receptor [4] worked out at 18%.
On to `COC[C@H](NC(=O)c1n[nH]c2c1CCCCC[C@@H]2Cc1cccc(Cl)c1)c1ccccc1` (relative stereo) [Cpd 27, (9R*)-(3-chloro-benzyl)-4,5,6,7,8,9-hexahydro-1H-cyclooctapyrazole-3-carboxylic acid [(1R)-2-methoxy-1-phenyl-ethyl]-amide], for which the negative logarithm of the EC50 (pEC50) on human CB1 receptor [1] was 7.37; at CB2 receptor [2] it was 7.59.
The like results for `O=C(NC(CO)c1ccccc1)c1n[nH]c2c1CCCCCC2Cc1cccc(Cl)c1` [Cpd 22, (9S*)-(3-chloro-benzyl)-4,5,6,7,8,9-hexahydro-1H-cyclooctapyrazole-3-carboxylic acid [(1R)-2-hydroxy-1-phenyl-ethyl]-amide] were, in that order, 6.94 and 8.52.
The compound `CCOC(=O)C1(NC(=O)c2nn(C3CCCCC3)c3c2CCCCCC3)CC2CCC1C2` (stereo not shown) [Cpd 4, 2-[(1-cyclohexyl-4,5,6,7,8,9-hexahydro-1H-cyclooctapyrazole-3-carbonyl)-amino]-bicyclo[2.2.1]heptane-2-carboxylic acid ethyl ester] gave a pIC50 at human CB1 receptor [3] of 7.22. For the same compound, the “CB1 receptor percent change in functional activity” value on human CB1 receptor [1] (single test concentration 1 μM (footnote 2)) is reported as “^(2)−71%”. Further, the inhibition at 0.003 µM at CB2 receptor [4] turned out to be 74%.
Turning to `COC[C@H](NC(=O)c1n[nH]c2c1CCCCC[C@H]2Cc1cccc(Cl)c1)c1ccccc1` (relative stereo) [Cpd 26, (9S*)-(3-chloro-benzyl)-4,5,6,7,8,9-hexahydro-1H-cyclooctapyrazole-3-carboxylic acid [(1R)-2-methoxy-1-phenyl-ethyl]-amide], the pEC50 on human CB1 receptor [1] was 7.15; on CB2 receptor [2], 8.30.

One may read the pEC50 as the EC50 on a negative log10 scale, so that one unit is a factor of ten. As a reminder, the inhibition is the percentage by which the read-out fell short of the control. A word on the pIC50: it is −log10 of the IC50, conventionally taken in molar units. A low value points to a high IC50.
